Measurements as given in patent US6737383B1, “Herbicidal oxadiazolidines” (priority 1999, dated 2004).

What was measured:
chickweed = test: Test E chickweed; assay type: in vivo, Stellaria media; details: Postemergence
Protocol: (§1) Compounds evaluated in this test were formulated in a non-phytotoxic solvent mixture which included a surfactant and applied to plants that were in the 1- to 4-leaf stage (postemergence application). A mixture of sandy loam soil and greenhouse potting mix in a 60:40 ratio was used for the postemergence test.
(§2) Plantings of these crops and weed species were adjusted to produce plants of appropriate size for the postemergence test. All plant species were grown using normal greenhouse practices. Crop and weed species include annual bluegrass (Poa annua), blackgrass (Alopecurus myosuroides), black nightshade (Solanum nigra), chickweed (Stellaria media), common poppy (Papaver rhoeas), deadnettle (Lamium amplexicaule), downy brome (Bromus tectorum), field violet (Viola arvensis), galium (Galium aparine), green foxtail (Setaria viridis), Italian ryegrass (Lolium multiflorum), jointed goatgrass (Aegilops cylindrica), kochia (Kochia scoparia), lambsquarters (Chenopodium album), littleseed canarygrass (Phalaris minor), rape (Brassica napus), redroot pigweed (Amaranthus retroflexus), Russian thistle (Salsola kali), scentless chamomile (Matricaria inodora), spring barley (Hordeum vulgare), sugar beet (Beta vulgaris), sunflower (Helianthus annuus), ivyleaf speedwell (Veronica hederaefolia), spring wheat (Triticum aestivum), winter wheat (Triticum aestivum), wild buckwheat (Polygonum convolvulus), wild mustard (Sinapis arvensis), wild oat (Avena fatua), windgrass (Apera spica-venti) and winter barley (Hordeum vulgare).
(§3) Treated plants and untreated controls were maintained in a greenhouse for approximately 21 to 28 days, after which all treated plants were compared to untreated controls and visually evaluated. […] A dash response (-) means no test result.

common poppy = test: Test E common poppy; assay type: in vivo, Papaver rhoeas; details: Postemergence; for Plant response rating, Comnion poppy: Rate 125 g/ha
In short: (§4)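 Visual evaluation versus untreated controls after about 21 to 28 days in the greenhouse. Compound was in a surfactant-containing non-phytotoxic solvent; postemergence plants were treated at the 1- to 4-leaf stage, grown in a 60:40 sandy loam and potting mix blend.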

galium = test: Test E galium; assay type: in vivo, Galium aparine; details: Postemergence
In short: as §4

kochia = test: Test E kochia; assay type: in vivo, Kochia scoparia; details: Postemergence
In short: as §4

rape = test: Test E rape; assay type: in vivo, Brassica napus; details: Postemergence
Protocol: […] A mixture of sandy loam soil and greenhouse potting mix in a 60:40 ratio was used for the postemergence test.
as §2, §3

sugar beet = test: Test E sugar beet; assay type: in vivo, Beta vulgaris; details: Postemergence
Protocol: as §1, §2, §3

ivyleaf speedwell = test: Test E postemergence ivyleaf speedwell; assay type: in vivo, Veronica hederaefolia
Protocol: as §1, §2, §3

jointed goatgrass = test: Test E jointed goatgrass; assay type: in vivo, Aegilops cylindrica; details: Preemergence
Russian thistle = test: Test E Russian thistle; assay type: in vivo, Salsola kali; details: Preemergence
wild buckwheat = test: Test E wild buckwheat; assay type: in vivo, Polygonum convolvulus; details: Preemergence
windgrass = test: Test E windgrass; assay type: in vivo, Apera spica-venti; details: Preemergence
common ragweed = test: Test C postemergence common ragweed; assay type: in vivo, Ambrosia elatior; details: 0 to 100 scale, 0 no effect, 100 complete control
Protocol: as §1, with “grown for various periods of time before treatment” for “in the 1- to 4-leaf stage”
(§5) Plantings of these crops and weed species were adjusted to produce plants of appropriate size for the postemergence test. All plant species were grown using normal greenhouse practices. Crop and weed species include arrowleaf sida (Sida rhombifolia), barnyardgrass (Echinochloa crus-galli), cocklebur (Xanthium strumarium), common ragweed (Ambrosia elatior), corn (Zea mays), cotton (Gossypium hirsutum), eastern black nightshade (Solanum ptycanthum), fall panicum (Panicum dichotomiflorum), field bindweed (Convolvulus arvensis), giant foxtail (Setaria faberii), hairy beggarticks (Bidens pilosa), ivyleaf morningglory (Ipomoea hederacea), johnsongrass (Sorghum halepense), ladysthumb smartweed (Polygonum persicaria), lambsquarters (Chenopodium album), large crabgrass (Digitaria sanguinalis), purple nutsedge (Cyperus rotundus), redroot pigweed (Amaranthus retroflexus), soybean (Glycine max), surinam grass (Brachiaria decumbens), velvetleaf (Abutilon theophrasti) and wild poinsettia (Euphorbia heterophylla).
(§6) Treated plants and untreated controls were maintained in a greenhouse for approximately 14, to 21 days, after which all treated plants were compared to untreated controls and visually evaluated. Plant response ratings, summarized in Table C, were based upon a 0 to 100 scale where 0 was no effect and 100 was complete control. A dash response (−) means no test result.

corn = test: Test C postemergence corn; assay type: in vivo, Zea mays; details: 0 to 100 scale, 0 no effect, 100 complete control
Protocol: as §1, with “grown for various periods of time before treatment” for “in the 1- to 4-leaf stage”
as §5, §6

cotton = test: Test C postemergence cotton; assay type: in vivo, Gossypium hirsutum; details: 0 to 100 scale, 0 no effect, 100 complete control
Protocol: as §1, with “grown for various periods of time before treatment” for “in the 1- to 4-leaf stage”
as §5, §6

field bindweed = test: Test C postemergence field bindweed; assay type: in vivo, Convolvulus arvensis; details: 0 to 100 scale, 0 no effect, 100 complete control
In short: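 Scores (0 = no effect, 100 = complete control) come from visual comparison with untreated controls after about 14–21 days. Spray formulation was a non-phytotoxic solvent mixture including surfactant; plants grew in a 60:40 sandy loam–potting mix blend.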

lambsquarters = test: Test C postemergence lambsquarters; assay type: in vivo, Chenopodium album; details: 0 to 100 scale, 0 no effect, 100 complete control
Protocol: as §1, with “grown for various periods of time before treatment” for “in the 1- to 4-leaf stage”
as §5, §6

velvetleaf = test: Test C postemergence velvetleaf; assay type: in vivo, Abutilon theophrasti; details: 0 to 100 scale, 0 no effect, 100 complete control
Protocol: as §1, with “grown for various periods of time before treatment” for “in the 1- to 4-leaf stage”
as §5, §6

[1] = Rate 250 g/ha, 0 to 100 scale (0 no effect, 100 complete control)
[2] = Rate 500 g/ha, 0 to 100 scale, 0 no effect, 100 complete control
[3] = Rate 125 g/ha, 0 to 100 scale (0 no effect, 100 complete control)
[4] = Rate 500 g/ha, 0 to 100 scale where 0 is no effect and 100 is complete control
[5] = Rate 250 g/ha, 0 to 100 scale where 0 is no effect and 100 is complete control

CC(C)N(C(=O)n1oc(=O)n(C(C)C)c1=O)c1ccc(Cl)cc1 [Compound 114]
Plant response rating, Chickweed (chickweed; Rate 125 g/ha, 0 to 100 scale): 10
Plant response rating, Chickweed (chickweed; [1]): 0
Plant response rating, Chickweed (chickweed; [2]): 10
Plant response rating, Comnion poppy (common poppy; 0 to 100 scale): 0
Plant response rating, Common poppy (common poppy; [1]): 10
Plant response rating, Common poppy (common poppy; [2]): 20
Plant response rating, Galium (galium; Rate 125 g/ha, 0 to 100 scale): 10
Plant response rating, Galium (galium; [1]): 50
Plant response rating, Galium (galium; [2]): 85
Plant response rating, Kochia (kochia; Rate 125 g/ha, 0 to 100 scale): 20
Plant response rating, Kochia (kochia; [1]): 30
Plant response rating, Kochia (kochia; [2]): 30
Plant response rating, Rape (rape; Rate 125 g/ha, 0 to 100 scale): 55
Plant response rating, Rape (rape; [1]): 50
Plant response rating, Rape (rape; [2]): 55
Plant response rating, Sugar beet (sugar beet; Rate 125 g/ha, 0 to 100 scale): 50
Plant response rating, Sugar beet (sugar beet; [1]): 55
Plant response rating, Sugar beet (sugar beet; [2]): 50
Plant response rating, Veronica hedera (ivyleaf speedwell; Rate 125 g/ha, 0 to 100 scale): 10
Plant response rating, Veronica hedera (ivyleaf speedwell; [1]): 50
Plant response rating, Veronica hedera (ivyleaf speedwell; [2]): 70
Plant response rating, Jointed goatgra (jointed goatgrass; [3]): 20
Plant response rating, Jointed goatgra (jointed goatgrass; Rate 250 g/ha, 0 to 100 scale): 65
Plant response rating, Jointed goatgra (jointed goatgrass; [4]): 50
Plant response rating, Russian thistle (Russian thistle; [3]): 0
Plant response rating, Russian thistle (Russian thistle; Rate 250 g/ha, 0 to 100 scale): 0
Plant response rating, Russian thistle (Russian thistle; [4]): 0
Plant response rating, Wild buckwheat (wild buckwheat; [3]): 20
Plant response rating, Wild buckwheat (wild buckwheat; Rate 250 g/ha, 0 to 100 scale): 50
Plant response rating, Wild buckwheat (wild buckwheat; [4]): 80
Plant response rating, Windgrass (windgrass; [3]): 100
Plant response rating, Windgrass (windgrass; [4]): 100

CCn1c(=O)on(C(=O)N(c2ccccc2)C(C)C)c1=O [Compound 117]
Plant response rating Common ragweed (common ragweed; Rate 140 g/ha): 0
Plant response rating Common ragweed (common ragweed; Rate 280 g/ha): 0
Plant response rating Common ragweed (common ragweed; Rate 560 g/ha): 20
Plant response rating Common ragweed (common ragweed; Rate 1120 g/ha): 50
Plant response rating, Corn (corn; Rate 140 g/ha): 0
Plant response rating, Corn (corn; Rate 280 g/ha): 0
Plant response rating, Corn (corn; Rate 560 g/ha): 40
Plant response rating, Corn (corn; Rate 1120 g/ha): 85
Plant response rating Cotton (cotton; Rate 140 g/ha): 5
Plant response rating Cotton (cotton; Rate 280 g/ha): 10
Plant response rating Cotton (cotton; Rate 560 g/ha): 30
Plant response rating Cotton (cotton; Rate 1120 g/ha): 60
Plant response rating Field bindweed (field bindweed; Rate 140 g/ha): 0
Plant response rating Field bindweed (field bindweed; Rate 280 g/ha): 30
Plant response rating Field bindweed (field bindweed; Rate 560 g/ha): 30
Plant response rating Field bindweed (field bindweed; Rate 1120 g/ha): 40
Plant response rating, Lambsquarters (lambsquarters; Rate 140 g/ha): 0
Plant response rating, Lambsquarters (lambsquarters; Rate 280 g/ha): 0
Plant response rating, Lambsquarters (lambsquarters; Rate 560 g/ha): 0
Plant response rating, Lambsquarters (lambsquarters; Rate 1120 g/ha): 0
Plant response rating, Velvetleaf (velvetleaf; Rate 140 g/ha): 0
Plant response rating, Velvetleaf (velvetleaf; Rate 560 g/ha): 20
Plant response rating, Velvetleaf (velvetleaf; Rate 1120 g/ha): 60

CC(C)N(C(=O)n1oc(=O)n(C(C)C)c1=O)c1ccc(F)cc1 [Compound 131]
Plant response rating Common ragweed (common ragweed; Rate 140 g/ha): 0
Plant response rating Common ragweed (common ragweed; Rate 280 g/ha): 0
Plant response rating Common ragweed (common ragweed; Rate 560 g/ha): 0
Plant response rating Common ragweed (common ragweed; Rate 1120 g/ha): 0
Plant response rating, Corn (corn; Rate 140 g/ha): 0
Plant response rating, Corn (corn; Rate 280 g/ha): 0
Plant response rating, Corn (corn; Rate 560 g/ha): 5
Plant response rating, Corn (corn; Rate 1120 g/ha): 40
Plant response rating Cotton (cotton; Rate 140 g/ha): 10
Plant response rating Cotton (cotton; Rate 280 g/ha): 10
Plant response rating Cotton (cotton; Rate 560 g/ha): 40
Plant response rating Cotton (cotton; Rate 1120 g/ha): 65
Plant response rating Field bindweed (field bindweed; Rate 140 g/ha): 0
Plant response rating Field bindweed (field bindweed; Rate 280 g/ha): 0
Plant response rating Field bindweed (field bindweed; Rate 560 g/ha): 0
Plant response rating Field bindweed (field bindweed; Rate 1120 g/ha): 60
Plant response rating, Lambsquarters (lambsquarters; Rate 140 g/ha): 0
Plant response rating, Lambsquarters (lambsquarters; Rate 280 g/ha): 0
Plant response rating, Lambsquarters (lambsquarters; Rate 1120 g/ha): 0
Plant response rating, Velvetleaf (velvetleaf; Rate 140 g/ha): 0
Plant response rating, Velvetleaf (velvetleaf; Rate 280 g/ha): 0
Plant response rating, Velvetleaf (velvetleaf; Rate 560 g/ha): 10
Plant response rating, Velvetleaf (velvetleaf; Rate 1120 g/ha): 70
Plant response rating, Chickweed (chickweed; Rate 62 g/ha, 0 to 100 scale): 60
Plant response rating, Chickweed (chickweed; Rate 125 g/ha, 0 to 100 scale): 10
Plant response rating, Chickweed (chickweed; [2]): 50
Chickweed plant response rating (chickweed; [5]): 20
Plant response rating, Common poppy (common poppy; Rate 62 g/ha, 0 to 100 scale): 65
Plant response rating, Comnion poppy (common poppy; 0 to 100 scale): 0
Plant response rating, Common poppy (common poppy; [2]): 0
Common poppy plant response rating (common poppy; [5]): 0
Plant response rating, Galium (galium; Rate 62 g/ha, 0 to 100 scale): 50
Plant response rating, Galium (galium; Rate 125 g/ha, 0 to 100 scale): 10
Plant response rating, Galium (galium; [2]): 50
Galium plant response rating (galium; [5]): 0
Plant response rating, Kochia (kochia; Rate 62 g/ha, 0 to 100 scale): 45
Plant response rating, Kochia (kochia; Rate 125 g/ha, 0 to 100 scale): 0
Plant response rating, Kochia (kochia; [2]): 0
Kochia plant response rating (kochia; [5]): 0
Plant response rating, Rape (rape; Rate 62 g/ha, 0 to 100 scale): 10
Plant response rating, Rape (rape; Rate 125 g/ha, 0 to 100 scale): 0
Plant response rating, Rape (rape; [2]): 0
Rape plant response rating (rape; [5]): 0
Plant response rating, Sugar beet (sugar beet; Rate 62 g/ha, 0 to 100 scale): 0
Plant response rating, Sugar beet (sugar beet; Rate 125 g/ha, 0 to 100 scale): 0
Plant response rating, Sugar beet (sugar beet; [2]): 0
Sugar beet plant response rating (sugar beet; [5]): 0
Plant response rating, Veronica hedera (ivyleaf speedwell; Rate 125 g/ha, 0 to 100 scale): 0
Veronica hedera plant response rating (ivyleaf speedwell; [5]): 0
Plant response rating, Veronica hedera (ivyleaf speedwell; [2]): 20
Plant response rating, Jointed goatgra (jointed goatgrass; [3]): 50
Jointed goatgra plant response rating (0 to 100 scale) (jointed goatgrass; Rate 250 g/ha): 70
Plant response rating, Jointed goatgra (jointed goatgrass; [4]): 95
Plant response rating, Russian thistle (Russian thistle; [3]): 10
Russian thistle plant response rating (0 to 100 scale) (Russian thistle; Rate 250 g/ha): 0
Plant response rating, Russian thistle (Russian thistle; [4]): 0
Plant response rating, Wild buckwheat (wild buckwheat; [3]): 30
Wild buckwheat plant response rating (0 to 100 scale) (wild buckwheat; Rate 250 g/ha): 70
Plant response rating, Wild buckwheat (wild buckwheat; [4]): 100
Plant response rating, Windgrass (windgrass; [3]): 100
Windgrass plant response rating (0 to 100 scale) (windgrass; Rate 250 g/ha): 100
Plant response rating, Windgrass (windgrass; [4]): 100
